According to patent US11878973B2, “Bicyclic compounds and their uses” (NOVARTIS AG, priority 2021, dated 2024):

Columns and labels:
DLD1-WRN-KO cells = experiment: Proliferation assay DLD1-WRN-KO (CellTiterGlo, 96 hours; off-target effects); details: Homo sapiens, read-out: Proliferation Assay DLD1-WRN-KO (GI50)
Description: (§1) The WRN-knockdown insensitive colon carcinoma cell line DLD-1 (RRID: CVCL_0248) was obtained from the Korean Cell Line Bank (KCLB), and used to generate a derivative in which the endogenous WRN gene copies were knocked out by CRISPR-mediated editing using standard CRISPR methods. The resulting cell line, DLD1-WRN—KO, was used to assess potential off-target compound effects.
(§2) All cells were maintained at 37° C. in a humidified 5% CO2 incubator.
(§3) For data analysis, the assay background signal that was determined in wells containing medium, but no cells, was subtracted from all other data points prior to further calculations. The extent of growth inhibition and potential cell kill was assessed by comparing the ATP levels (measured using CellTiterGlo, Promega) in compound-treated cells with those present at the time of compound addition. […] 100%, 0% and −100% signify absence of growth inhibition, growth stasis, and complete cell kill, respectively. Compound concentrations leading to half-maximal growth inhibition (G150) and residual cell viability at the highest tested compound concentration (Data (cmax), expressed in percent) were routinely calculated. Data analysis can also be carried out using commercially available software designed to derive IC50 values using 4-parameter fits (e.g. GraphPad Prism, XL fit). The reported GI50 values are the geometrical means of at least 2 independent replicates.

WRN helicase = WRN helicase (Homo sapiens (Human), UniProt Q14191); experiment: In vitro enzymatic activity assay on WRN helicase (DNA dependent ATPase assay, ADP-Glo); assay type: biochemical; details: geometric means of at least 2 determinations; read-out: WRN ATPase Activity (IC50)
Sequence of WRN helicase (Q14191 517-1238): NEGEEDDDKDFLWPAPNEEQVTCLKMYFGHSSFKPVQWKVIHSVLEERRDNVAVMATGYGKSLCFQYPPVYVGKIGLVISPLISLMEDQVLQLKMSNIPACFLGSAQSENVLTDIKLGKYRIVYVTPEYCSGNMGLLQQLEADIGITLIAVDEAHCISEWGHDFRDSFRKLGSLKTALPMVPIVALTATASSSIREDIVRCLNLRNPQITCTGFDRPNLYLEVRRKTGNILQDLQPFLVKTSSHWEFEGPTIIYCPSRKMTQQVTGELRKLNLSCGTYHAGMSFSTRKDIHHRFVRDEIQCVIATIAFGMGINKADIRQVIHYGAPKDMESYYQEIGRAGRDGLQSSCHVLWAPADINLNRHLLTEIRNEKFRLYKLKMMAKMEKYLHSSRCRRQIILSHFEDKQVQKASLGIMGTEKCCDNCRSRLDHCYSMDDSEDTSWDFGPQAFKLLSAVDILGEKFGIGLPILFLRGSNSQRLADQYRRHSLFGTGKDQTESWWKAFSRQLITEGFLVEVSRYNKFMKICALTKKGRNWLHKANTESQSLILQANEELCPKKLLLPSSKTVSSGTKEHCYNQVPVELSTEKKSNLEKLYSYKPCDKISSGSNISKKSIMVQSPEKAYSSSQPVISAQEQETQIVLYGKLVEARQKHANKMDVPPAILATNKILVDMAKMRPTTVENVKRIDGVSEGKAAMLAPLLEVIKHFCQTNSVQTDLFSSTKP
Description: An ATPase assay was set up to measure the DNA dependent ATP hydrolysis activity of WRN helicase. This assay was used also to assess the inhibition properties of compounds of the invention on DNA dependent WRN ATPase activity.
The core helicase motif of the WRN protein (aa N517-P1238) was produced for this assay (protein production as described above). […] The ADP-Glo assay kit (Promega, Madison, WI) allowing the quantification of ADP produced in ATP hydrolysis reactions was used for setting up this assay.
Time course experiments were first performed in order to determine the best enzymatic assay conditions (including buffer conditions, reaction time and concentrations of protein, ATP and DNA substrates). A typical reaction consists of 10 nM WRN protein, 0.2 nM FLAP26, and 300 micromolar ATP in the following assay buffer: 30 mM Tris pH7.5, 2 mM MgCl2, 0.02% BSA, 50 mM NaCl, 0.1% pluronic F127 prepared in DNAse free water. To evaluate the inhibition properties of compounds of the invention, serial dilutions were prepared in DMSO (10 half log dilutions from a 10 mM DMSO solution). […] The reaction was started by addition of 2.5 microliters of FLAP26 at 0.4 nM and incubated for 30 minutes at room temperature. The reaction was stopped with the addition of 5 microliters of the first ADP-Glo reagent and incubated for one hour to remove the excess amount of ATP. Afterwards, 10 microliters of ATP detection reagent was added and incubated for an additional hour before reading. Luminescence output was recorded using Tecan 1000 reader, with 5 minutes delay before reading. Each concentration of compound was tested in duplicates in the assay plate.
Following normalization of activity values for the wells to % inhibition (% inhibition=[(high control-sample)/(high control-low control)]×100), IC50 fitting was carried out from the duplicate determinations present on each plate according to [4]. Data analysis can also be carried out using commercially available software designed to derive IC50 values using 4-parameter fits (e.g. GraphPad Prism, XL fit). The reported IC50 values are the geometrical means of at least 2 independent replicates.

SW48 cells = experiment: Proliferation assay SW48 (CellTiterGlo, 96 hours); details: Homo sapiens, SW48, read-out: Proliferation Assay SW48 (GI50)
Description: as §1, §2, §3

Row | SMILES | GI50 (DLD1-WRN-KO cells) [nM] | IC50 (WRN helicase) [nM] | GI50 (SW48 cells) [nM]
1 | CCc1c(N2CCN(C(=O)c3ncnc(C)c3O)CC2)c(=O)n2nc(C3=CCCCO3)nc2n1CC(=O)Nc1ccc(C(F)(F)F)nc1C [Example 31, 2-(2-(3,4-dihydro-2H-pyran-6-yl)-5-ethyl-6-(4-(5-hydroxy-6-methylpyrimidine-4-carbonyl)piperazin-1-yl)-7-oxo-[1,2,4]triazolo[1,5-a]pyrimidin-4(7H)-yl)-N-(2-methyl-6-(trifluoromethyl)pyridin-3-yl)acetamide] | > 10000 | 230 | 320
2 | CCc1c(N2CCN(C(=O)c3nccc(Cl)c3O)CC2)c(=O)n2nc(N3CCOCC3)nc2n1CC(=O)Nc1ccc(C(F)(F)F)cc1C [Example 9, 2-(6-(4-(4-chloro-3-hydroxypicolinoyl)piperazin-1-yl)-5-ethyl-2-morpholino-7-oxo-[1,2,4]triazolo[1,5-a]pyrimidin-4(7H)-yl)-N-(2-methyl-4-(trifluoromethyl)phenyl)acetamide] | > 10000 | 60 | 350
3 | CCc1c(N2CCN(C(=O)c3ncnc(C)c3O)CC2)c(=O)n2nc(C3=CCOCC3)nc2n1CC(=O)Nc1cc(F)c(C=O)cc1C [Example 54, 2-(2-(3,6-dihydro-2H-pyran-4-yl)-5-ethyl-6-(4-(5-hydroxy-6-methylpyrimidine-4-carbonyl)piperazin-1-yl)-7-oxo-[1,2,4]triazolo[1,5-a]pyrimidin-4(7H)-yl)-N-(5-fluoro-4-formyl-2-methylphenyl)acetamide] | > 10000 | 1300 | 6010
4 | CCc1c(N2CCN(C(=O)c3ncccc3O)CC2)c(=O)n2nc(N3CCOCC3)nc2n1CC(=O)Nc1cc(C(F)(F)F)c(Cl)cc1C [Example 12, N-(4-chloro-2-methyl-5-(trifluoromethyl)phenyl)-2-(5-ethyl-6-(4-(3-hydroxypicolinoyl)piperazin-1-yl)-2-morpholino-7-oxo-[1,2,4]triazolo[1,5-a]pyrimidin-4(7H)-yl)acetamide] | > 10000 | 130 | 550
5 | CCc1c(N2CCN(C(=O)c3nccc(Cl)c3O)CC2)c(=O)n2nc(C3=CCCCO3)nc2n1CC(=O)Nc1ccc(C(F)(F)F)nc1Cl [Example 30, 2-(6-(4-(4-chloro-3-hydroxypicolinoyl)piperazin-1-yl)-2-(3,4-dihydro-2H-pyran-6-yl)-5-ethyl-7-oxo-[1,2,4]triazolo[1,5-a]pyrimidin-4(7H)-yl)-N-(2-chloro-6-(trifluoromethyl)pyridin-3-yl)acetamide] | > 10000 | 140 | 160
6 | [2H]C1([2H])N(C(=O)c2ncnc(C)c2O)C([2H])([2H])C([2H])([2H])N(c2c(CC)n(CC(=O)Nc3ccc(C(F)(F)F)cc3Cl)c3nc(C4=CCOCC4)nn3c2=O)C1([2H])[2H] [Example 133, N-(2-chloro-4-(trifluoromethyl)phenyl)-2-(2-(3,6-dihydro-2H-pyran-4-yl)-5-ethyl-6-(4-(5-hydroxy-6-methylpyrimidine-4-carbonyl)piperazin-1-yl-2,2,3,3,5,5,6,6-d8)-7-oxo-[1,2,4]triazolo[1,5-a]pyrimidin-4(7H)-yl)acetamide] | – | – | 60
7 | [2H]C([2H])(C(=O)Nc1ccc(C(F)(F)F)cc1Cl)n1c(CC)c(N2CCN(C(=O)c3ncnc(C)c3O)CC2)c(=O)n2nc(C3=CCOCC3)nc12 [Example 43, N-(2-chloro-4-(trifluoromethyl)phenyl)-2-(2-(3,6-dihydro-2H-pyran-4-yl)-5-ethyl-6-(4-(5-hydroxy-6-methylpyrimidine-4-carbonyl)piperazin-1-yl)-7-oxo-[1,2,4]triazolo[1,5-a]pyrimidin-4(7H)-yl)acetamide-2,2-d2] | – | – | 50

The next lines start with the values.

Row | GI50 (DLD1-WRN-KO cells) [nM] | IC50 (WRN helicase) [nM] | GI50 (SW48 cells) [nM] | SMILES
8 | > 10000 | 90 | 60 | CCc1c(N2CCN(C(=O)c3ncccc3O)CC2)c(=O)n2nc(C3=CCCCO3)nc2n1CC(=O)Nc1ccc(C(F)(F)F)cc1C [Example 83, 2-(2-(3,4-dihydro-2H-pyran-6-yl)-5-ethyl-6-(4-(3-hydroxypicolinoyl)piperazin-1-yl)-7-oxo-[1,2,4]triazolo[1,5-a]pyrimidin-4(7H)-yl)-N-(2-methyl-4-(trifluoromethyl)phenyl)acetamide]
9 | > 10000 | 250 | 280 | CCc1c(N2CCN(C(=O)c3ncccc3O)CC2)c(=O)n2nc(C3=CCOCC3)nc2n1CC(=O)Nc1cnc(C(F)(F)F)cc1C [Example 34, 2-(2-(3,6-dihydro-2H-pyran-4-yl)-5-ethyl-6-(4-(3-hydroxypicolinoyl)piperazin-1-yl)-7-oxo-[1,2,4]triazolo[1,5-a]pyrimidin-4(7H)-yl)-N-(4-methyl-6-(trifluoromethyl)pyridin-3-yl)acetamide]
10 | > 10000 | 80 | 650 | Cc1c(C2CCN(C(=O)c3ncccc3O)CC2)c(=O)n2nc(C3=CCOCC3)nc2n1CC(=O)Nc1ccc(C(F)(F)F)cc1 [Example 136, 2-(2-(3,6-dihydro-2H-pyran-4-yl)-6-(1-(3-hydroxypicolinoyl)piperidin-4-yl)-5-methyl-7-oxo-[1,2,4]triazolo[1,5-a]pyrimidin-4(7H)-yl)-N-(4-(trifluoromethyl)phenyl)acetamide]
11 | > 10000 | 70 | 200 | CCc1c(N2CCN(C(=O)c3ncnc(C)c3O)CC2)c(=O)n2nc(C3=CCOCC3)nc2n1CC(=O)Nc1ccc(C(F)(F)F)cc1 [Example 73, 2-(2-(3,6-dihydro-2H-pyran-4-yl)-5-ethyl-6-(4-(5-hydroxy-6-methylpyrimidine-4-carbonyl)piperazin-1-yl)-7-oxo-[1,2,4]triazolo[1,5-a]pyrimidin-4(7H)-yl)-N-(4-(trifluoromethyl)phenyl)acetamide]
12 | > 10000 | 50 | 100 | CCc1c(N2CCN(C(=O)c3ncnc(C)c3O)CC2)c(=O)n2nc(C3=CCOCC3)nc2n1CC(=O)Nc1ccc(C(F)(F)F)cc1F [Example 107, 2-(2-(3,6-dihydro-2H-pyran-4-yl)-5-ethyl-6-(4-(5-hydroxy-6-methylpyrimidine-4-carbonyl)piperazin-1-yl)-7-oxo-[1,2,4]triazolo[1,5-a]pyrimidin-4(7H)-yl)-N-(2-fluoro-4-(trifluoromethyl)phenyl)acetamide]
13 | 6300 | 40 | 30 | CCc1c(N2CCN(C(=O)c3ncccc3O)CC2)c(=O)n2nc(C3=CCOCC3)nc2n1CC(=O)Nc1cc(Cl)c(C(F)(F)F)cc1C [Example 69, N-(5-chloro-2-methyl-4-(trifluoromethyl)phenyl)-2-(2-(3,6-dihydro-2H-pyran-4-yl)-5-ethyl-6-(4-(3-hydroxypicolinoyl)piperazin-1-yl)-7-oxo-[1,2,4]triazolo[1,5-a]pyrimidin-4(7H)-yl)acetamide]
14 | > 10000 | 70 | 60 | CCc1c(N2CCN(C(=O)c3ncccc3O)[C@H](C)C2)c(=O)n2nc(C3=CCOCC3)nc2n1CC(=O)Nc1ccc(C(F)(F)F)cc1 [Example 71, (R)-2-(2-(3,6-dihydro-2H-pyran-4-yl)-5-ethyl-6-(4-(3-hydroxypicolinoyl)-3-methylpiperazin-1-yl)-7-oxo-[1,2,4]triazolo[1,5-a]pyrimidin-4(7H)-yl)-N-(4-(trifluoromethyl)phenyl)acetamide]
15 | – | 130 | – | Cc1c(N2CCN(C(=O)c3ncccc3O)CC2)c(=O)n2nc(C3=CCN(C(=O)OC(C)(C)C)CC3)nc2n1CC(=O)Nc1ccc(C(F)(F)F)cc1 [Example 126, tert-butyl 4-(6-(4-(3-hydroxypicolinoyl)piperazin-1-yl)-5-methyl-7-oxo-4-(2-oxo-2-((4-(trifluoromethyl)phenyl)amino)ethyl)-4,7-dihydro-[1,2,4]triazolo[1,5-a]pyrimidin-2-yl)-3,6-dihydropyridine-1(2H)-carboxylate]
16 | – | – | 50 | CCc1c(N2CCN(C(=O)c3ncnc(C)c3O)CC2)c(=O)n2nc(C3=CCOCC3)nc2n1CC(=O)Nc1ccc(C(F)(F)F)cc1Cl [Example 42, N-(2-chloro-4-(trifluoromethyl)phenyl)-2-(2-(3,6-dihydro-2H-pyran-4-yl)-5-ethyl-6-(4-(5-hydroxy-6-methylpyrimidine-4-carbonyl)piperazin-1-yl)-7-oxo-[1,2,4]triazolo[1,5-a]pyrimidin-4(7H)-yl)acetamide]
